Key:
[1] = system: barnyardgrass; test: Test B flooded paddy test; assay type: in vivo, Echinochloa crus-galli; settings: Flood, scale of 0 to 100 where 0 is no effect and 100 is complete control
How it was run: (§1)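 Plants grown to 2-leaf stage; pots flooded 3 cm above soil and compound applied directly into paddy water, depth held throughout. Visual rating against untreated controls after 13 to 15 days in greenhouse, 0 (no effect) to 100 (complete control).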

[2] = system: ragweed; test: Test C pre-/postemergence herbicide test; assay type: in vivo, Ambrosia elatior
How it was run: (§2)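 Test compounds, formulated in a surfactant-containing non-phytotoxic solvent blend, are applied to seeded loam/sand soil (preemergence) and to young plants at the 1- to 4-leaf stage in peat-based medium (postemergence). Plants stay 13 to 15 days under greenhouse conditions, then are scored visually relative to controls, 0 = no effect, 100 = complete control.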

[3] = system: corn; test: Test A pre-/postemergence herbicide test; assay type: in vivo, Zea mays
How it was run: (§3)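 Planted in loam–sand blend; treated the same day preemergence by directed soil spray, while separately grown plants at one- to two-leaf stage got postemergence spray. Compared visually with untreated controls after approximately 10 days; 100 means complete control.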

[4] = system: soybean; test: Test C pre-/postemergence herbicide test; assay type: in vivo, Glycine max
How it was run: as §2

[5] = system: sedge, umbrella; test: Test B flooded paddy test; assay type: in vivo, Cyperus difformis; settings: Flood, scale of 0 to 100 where 0 is no effect and 100 is complete control
How it was run: as §1

[6] = system: giant foxtail; test: Test A pre-/postemergence herbicide test; assay type: in vivo, Setaria faberii
How it was run: as §3

[7] = system: barnyardgrass; test: Test C pre-/postemergence herbicide test; assay type: in vivo, Echinochloa crus-galli
How it was run: as §2

[8] = system: crabgrass, large; test: Test C pre-/postemergence herbicide test; assay type: in vivo, Digitaria sanguinalis
How it was run: as §2

[9] = system: morningglory; test: Test C pre-/postemergence herbicide test; assay type: in vivo, Ipomoea coccinea
How it was run: as §2

[10] = system: rice; test: Test B flooded paddy test; assay type: in vivo, Oryza sativa; settings: Flood, scale of 0 to 100 where 0 is no effect and 100 is complete control
How it was run: as §1

[11] = system: barnyardgrass; test: Test A pre-/postemergence herbicide test; assay type: in vivo, Echinochloa crus-galli
How it was run: as §3

[12] = system: ducksalad; test: Test B flooded paddy test; assay type: in vivo, Heteranthera limosa; settings: Flood, scale of 0 to 100 where 0 is no effect and 100 is complete control
How it was run: as §1

[13] = system: blackgrass; test: Test C pre-/postemergence herbicide test; assay type: in vivo, Alopecurus myosuroides
How it was run: as §2

[14] = Postemergence, 31 g ai/ha, scale 0 to 100 (0 no effect, 100 complete control)
[15] = Postemergence, 62 g ai/ha, scale 0 (no effect) to 100 (complete control)
[16] = Postemergence, 125 g ai/ha, scale 0 to 100 (0 no effect, 100 complete control)
[17] = Postemergence, 250 g ai/ha, scale 0 to 100 (0 no effect, 100 complete control)
[18] = Preemergence, 31 g ai/ha, scale 0 to 100, 0 is no effect and 100 is complete control
[19] = Preemergence, 62 g ai/ha, scale 0 to 100
[20] = Preemergence, 125 g ai/ha, scale 0 to 100 (0 no effect, 100 complete control)
[21] = Postemergence, 125 g ai/ha, 0 to 100 scale, 0 no effect, 100 complete control
[22] = Postemergence, 500 g ai/ha, 0 to 100 scale (0 no effect, 100 complete control)
[23] = 125 g ai/ha, visual rating, 0 to 100 scale, 0 no effect, 100 complete control, approximately 10 days, preemergence
[24] = Preemergence, 62 g ai/ha, scale 0 to 100 (0 no effect, 100 complete control)
[25] = Postemergence, 125 g ai/ha, 0 to 100 scale, 0 is no effect, 100 is complete control
[26] = Preemergence, 125 g ai/ha, 0 to 100 scale where 0 is no effect and 100 is complete control
[27] = preemergence, 500 g ai/ha, 0 to 100 scale, 0 is no effect and 100 is complete control

O=C1NCC(c2ccc(F)cc2)C1C(=O)Nc1cccc(F)c1F (racemic) [Compound 119]
40: Plant response rating, Barnyardgrass [7, 15]
5: Plant response rating, Soybean [4, 14] | Plant response rating, Soybean [4, 15] | Plant response rating, Soybean [4, 17] | Plant response rating, Morningglory [9, 16] | Plant response rating, Morningglory [9, 17]
70: Plant response rating, Corn [3, 22] | Plant response rating, Blackgrass [13, 19]
65: Plant response rating, Barnyardgrass [7, 16] | Plant response rating, Crabgrass, Large [8, 15]
90: Plant response rating, Foxtail, Giant [6, 23] | Plant response rating, Foxtail, Giant [6, 21] | Foxtail, Giant plant response rating (0 to 100 scale, 0 is no effect, 100 is complete control) ([6]; Postemergence, 500 g ai/ha) | Plant response rating, Foxtail, Giant ([6]; preemergence, 500 g ai/ha, 0 to 100 scale) | Plant response rating, Barnyardgrass [7, 19] | Plant response rating, Crabgrass, Large [8, 17] | Plant response rating, Barnyardgrass [11, 23] | Plant response rating, Barnyardgrass [11, 21] | Plant response rating, Barnyardgrass [11, 22] | Plant response rating, Barnyardgrass ([11]; preemergence, 500 g ai/ha, 0 to 100 scale (0 no effect, 100 complete control))
55: Plant response rating, Crabgrass, Large [8, 14]
85: Plant response rating (scale of 0 to 100), Blackgrass ([13]; Preemergence, 250 g ai/ha)
80: Plant response rating, Barnyardgrass ([1]; 500 g ai/ha) | Plant response rating (scale of 0 to 100), Ragweed ([2]; Preemergence, 250 g ai/ha) | Plant response rating, Barnyardgrass [7, 17] | Barnyardgrass plant response rating [7, 18] | Plant response rating, Crabgrass, Large [8, 16] | Plant response rating, Blackgrass [13, 20]
98: Plant response rating (scale of 0 to 100; 0 is no effect, 100 is complete control), Barnyardgrass ([7]; Preemergence, 250 g ai/ha) | Crabgrass, Large plant response rating [8, 18] | Plant response rating, Crabgrass, Large [8, 19]
45: Plant response rating, Ragweed [2, 16]
20: Plant response rating, Ragweed [2, 14] | Plant response rating, Soybean [4, 19]
10: Plant response rating, Rice ([10]; 500 g ai/ha)
60: Ragweed plant response rating [2, 18]
30: Plant response rating, Corn [3, 21]
75: Plant response rating, Ragweed [2, 20]
25: Plant response rating, Ragweed [2, 17] | Plant response rating, Barnyardgrass [7, 14]
100: Plant response rating, Crabgrass, Large [8, 20] | Plant response rating (scale of 0 to 100), Crabgrass, Large ([8]; Preemergence, 250 g ai/ha) | Plant response rating, Ducksalad ([12]; 500 g ai/ha)
0: Plant response rating, Ragweed [2, 15] | Plant response rating, Soybean [4, 16] | Soybean plant response rating [4, 18] | Plant response rating, Soybean [4, 20] | Plant response rating (scale of 0 to 100), Soybean ([4]; Preemergence, 250 g ai/ha) | Plant response rating, Sedge, Umbrella ([5]; 500 g ai/ha) | Plant response rating, Morningglory [9, 14] | Plant response rating, Morningglory [9, 15] | Morningglory plant response rating [9, 18] | Plant response rating, Morningglory [9, 19] | Plant response rating, Blackgrass [13, 14] | Plant response rating, Blackgrass [13, 15] | Plant response rating, Blackgrass [13, 16] | Plant response rating, Blackgrass [13, 17] | Blackgrass plant response rating [13, 18]
35: Plant response rating, Ragweed [2, 19] | Plant response rating, Morningglory [9, 20] | Plant response rating (scale of 0 to 100), Morningglory ([9]; Preemergence, 250 g ai/ha)
95: Plant response rating, Barnyardgrass [7, 20]

O=C1NCC(c2cccc(C(F)(F)F)c2)C1C(=O)Nc1cccc(F)c1F (centres unmarked) [Compound 241]
75: Plant response rating, Barnyardgrass ([1]; 1000 g ai/ha)
30: Plant response rating, Ragweed [2, 20] | Plant response rating (scale of 0 to 100), Morningglory ([9]; Preemergence, 250 g ai/ha)
20: Plant response rating, Corn [3, 26] | Plant response rating, Sedge, Umbrella ([5]; 1000 g ai/ha)
85: Plant response rating (scale of 0 to 100), Blackgrass ([13]; Preemergence, 250 g ai/ha)
25: Ragweed plant response rating [2, 24]
55: Plant response rating, Barnyardgrass ([1]; 250 g ai/ha)
80: Plant response rating, Corn [3, 22] | Plant response rating, Foxtail, Giant [6, 25] | Plant response rating, Barnyardgrass [11, 25] | Plant response rating, Barnyardgrass [11, 26] | Plant response rating, Blackgrass [13, 20]
70: Plant response rating (scale of 0 to 100), Ragweed ([2]; Preemergence, 250 g ai/ha) | Plant response rating, Blackgrass [13, 19]
50: Plant response rating, Corn [3, 25] | Plant response rating, Corn [3, 27] | Blackgrass plant response rating [13, 18]
90: Plant response rating, Foxtail, Giant [6, 22] | Plant response rating, Foxtail, Giant [6, 26] | Plant response rating, Foxtail, Giant [6, 27] | Barnyardgrass plant response rating [7, 18] | Plant response rating, Barnyardgrass [11, 22] | Plant response rating, Barnyardgrass [11, 27]
10: Plant response rating, Morningglory [9, 20] | Plant response rating, Rice ([10]; 1000 g ai/ha)
100: Plant response rating (scale of 0 to 100), Crabgrass, Large ([8]; Preemergence, 250 g ai/ha) | Plant response rating, Ducksalad ([12]; 250 g ai/ha) | Plant response rating, Ducksalad ([12]; 1000 g ai/ha)
98: Plant response rating, Crabgrass, Large [8, 20]
95: Plant response rating, Barnyardgrass [7, 19] | Plant response rating, Barnyardgrass [7, 20] | Plant response rating (scale of 0 to 100; 0 is no effect, 100 is complete control), Barnyardgrass ([7]; Preemergence, 250 g ai/ha) | Crabgrass, Large plant response rating [8, 18] | Crabgrass, Large plant response rating [8, 24]
0: Ragweed plant response rating [2, 18] | Soybean plant response rating [4, 18] | Soybean plant response rating [4, 24] | Plant response rating, Soybean [4, 20] | Plant response rating (scale of 0 to 100), Soybean ([4]; Preemergence, 250 g ai/ha) | Plant response rating, Sedge, Umbrella ([5]; 250 g ai/ha) | Morningglory plant response rating [9, 18] | Morningglory plant response rating [9, 24] | Plant response rating, Rice ([10]; 250 g ai/ha)

O=C1NCC(c2ccc(C(F)(F)F)nc2)C1C(=O)Nc1ccccc1F (racemic) [Compound 262]
100: Plant response rating, Crabgrass, Large [8, 20] | Plant response rating (scale of 0 to 100), Crabgrass, Large ([8]; Preemergence, 250 g ai/ha) | Plant response rating, Ducksalad ([12]; 1000 g ai/ha)
0: Ragweed plant response rating [2, 18] | Plant response rating, Corn [3, 25] | Plant response rating, Corn [3, 22] | Plant response rating, Corn [3, 26] | Plant response rating, Corn [3, 27] | Soybean plant response rating [4, 18] | Soybean plant response rating [4, 24] | Plant response rating, Soybean [4, 20] | Plant response rating (scale of 0 to 100), Soybean ([4]; Preemergence, 250 g ai/ha) | Plant response rating, Sedge, Umbrella ([5]; 1000 g ai/ha) | Morningglory plant response rating [9, 18] | Morningglory plant response rating [9, 24] | Plant response rating, Rice ([10]; 1000 g ai/ha) | Blackgrass plant response rating [13, 18] | Blackgrass plant response rating [13, 24] | Plant response rating, Blackgrass [13, 20] | Plant response rating (scale of 0 to 100), Blackgrass ([13]; Preemergence, 250 g ai/ha)
10: Plant response rating, Ragweed [2, 20] | Plant response rating, Morningglory [9, 20] | Plant response rating (scale of 0 to 100), Morningglory ([9]; Preemergence, 250 g ai/ha)
75: Plant response rating (scale of 0 to 100), Ragweed ([2]; Preemergence, 250 g ai/ha)
20: Plant response rating, Barnyardgrass ([1]; 1000 g ai/ha) | Ragweed plant response rating [2, 24]
80: Plant response rating, Foxtail, Giant [6, 26] | Plant response rating, Barnyardgrass [11, 26]
60: Plant response rating, Foxtail, Giant [6, 25] | Plant response rating, Barnyardgrass [11, 25]
45: Barnyardgrass plant response rating [7, 18]
98: Crabgrass, Large plant response rating [8, 24]
90: Plant response rating, Foxtail, Giant [6, 27] | Plant response rating, Barnyardgrass [7, 20] | Plant response rating, Barnyardgrass [11, 27]
95: Plant response rating (scale of 0 to 100; 0 is no effect, 100 is complete control), Barnyardgrass ([7]; Preemergence, 250 g ai/ha) | Crabgrass, Large plant response rating [8, 18]
70: Plant response rating, Foxtail, Giant [6, 22] | Barnyardgrass plant response rating [7, 24] | Plant response rating, Barnyardgrass [11, 22]

— patent US10294202B2, “Pyrrolidinones as herbicides” (FMC Corporation, priority 2013, dated 2019)
